Data published in patent US20100087658A1, “METHODS AND INTERMEDIATES FOR SYNTHESIS OF SELECTIVE DPP-IV INHIBITORS” (Phenomix Corporation, priority 1996, published 2010).

Conditions: crystalline form as isolated

O=C([O-])CN(C(=O)OCc1ccccc1)C1CCN(C(=O)OCc2ccccc2)C1.[Na+] (stereo not shown) [II-Cbz-Na, sodium salt of (1-carbobenzyloxypyrrolidin-3-yl)-N-carbobenzyloxyglycine]
water solubility: highly water-soluble
